Test results as given in US11472798B2 (Mission Therapeutics Limited, priority 2014, dated 2022).

Each molecule was assayed against T1, UCHL1 (Homo sapiens, UniProt P09936) (assay: UCHL1 biochemical IC50 assay (fluorescence polarisation)). Settings: 30 min enzyme/compound pre-incubation at room temp, read after 2 hr incubation, read-out: Activity range (UCHL1 biochemical IC50 assay).
T1 construct: made in house; host or cells: HEK293T
T1 sequence (P09936 1-223): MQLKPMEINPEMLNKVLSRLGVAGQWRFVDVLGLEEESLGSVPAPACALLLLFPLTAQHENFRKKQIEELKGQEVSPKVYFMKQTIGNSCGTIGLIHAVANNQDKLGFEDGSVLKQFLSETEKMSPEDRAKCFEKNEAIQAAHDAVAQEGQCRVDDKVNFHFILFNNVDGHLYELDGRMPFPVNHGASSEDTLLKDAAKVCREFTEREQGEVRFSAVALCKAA
How it was run: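 FLAG-UCHL1 purified from transfected HEK293T cells was preincubated 30 min at room temperature with compound (8 points, 100–0.03 μM final) in Tris pH 7.5 buffer with Tween 20, BSA and beta-mercaptoethanol. Reaction started with 50 nM TAMRA-peptide–ubiquitin isopeptide substrate; fluorescence polarisation (ex 540/em 590 nm) read at once and after 2 h.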

| Compound | IC50 [nM] |
| --- | --- |
| CN1CCc2nc(NC(=O)[C@H]3CCN(C#N)C3)sc2C1 [Example 200, (S)-1-cyano-N-(5-methyl-4,5,6,7-tetrahydrothiazolo[5,4-c]pyridin-2-yl)pyrrolidine-3-carboxamide] | 1000 to 10000 |
| N#CN1CC[C@H](C(=O)Nc2nc3c(s2)CN(Cc2ccccc2)CC3)C1 [Example 201, (S)—N-(5-benzyl-4,5,6,7-tetrahydrothiazolo[5,4-c]pyridin-2-yl)-1-cyanopyrrolidine-3-carboxamide] | 1000 to 10000 |
| CS(=O)(=O)N1CCc2nc(NC(=O)[C@H]3CCN(C#N)C3)sc2C1 [Example 202, (S)-1-cyano-N-(5-(methylsulfonyl)-4,5,6,7-tetrahydrothiazolo[5,4-c]pyridin-2-yl)pyrrolidine-3-carboxamide] | < 1000 |
| CC(C)S(=O)(=O)N1CCc2nc(NC(=O)[C@H]3CCN(C#N)C3)sc2C1 [Example 203, (S)-1-cyano-N-(5-(isopropylsulfonyl)-4,5,6,7-tetrahydrothiazolo[5,4-c]pyridin-2-yl)pyrrolidine-3-carboxamide] | < 1000 |
| N#CN1CC[C@H](C(=O)Nc2nc3c(s2)CN(S(=O)(=O)c2ccccc2)CC3)C1 [Example 204, (S)-1-cyano-N-(5-(phenylsulfonyl)-4,5,6,7-tetrahydrothiazolo[5,4-c]pyridin-2-yl)pyrrolidine-3-carboxamide] | < 1000 |
| C#Cc1ccc(-c2cnc(NC(=O)[C@H]3CCN(C#N)C3)s2)cc1 [Example 205, (S)-1-cyano-N-(5-(4-ethynylphenyl)thiazol-2-yl)pyrrolidine-3-carboxamide] | < 1000 |
| C#Cc1cccc(-c2cnc(NC(=O)[C@H]3CCN(C#N)C3)s2)c1 [Example 206, (S)-1-cyano-N-(5-(3-ethynylphenyl)thiazol-2-yl)pyrrolidine-3-carboxamide] | < 1000 |
| CC(NS(=O)(=O)c1ccc(NC(=O)[C@H]2CCN(C#N)C2)nc1)c1ccccc1 (stereo partly drawn) [Example 207, (3S)-1-cyano-N-(5-(N-(1-phenylethyl)sulfamoyl)pyridin-2-yl)pyrrolidine-3-carboxamide] | 1000 to 10000 |
| CC(c1ccccc1)N(C)S(=O)(=O)c1ccc(NC(=O)[C@H]2CCN(C#N)C2)nc1 (stereo partly drawn) [Example 208, (3S)-1-cyano-N-(5-(N-methyl-N-(1-phenylethyl)sulfamoyl)pyridin-2-yl)pyrrolidine-3-carboxamide] | < 1000 |
| Cc1nc(-c2ccc3nc(NC(=O)[C@H]4CCN(C#N)C4)cn3c2)no1 [Example 209, (S)-1-cyano-N-(6-(5-methyl-1,2,4-oxadiazol-3-yl)imidazo[1,2-a]pyridin-2-yl)pyrrolidine-3-carboxamide] | < 1000 |
| Cn1cc(-c2ccnc(NC(=O)[C@H]3CCN(C#N)C3)c2)cn1 [Example 211, (S)-1-cyano-N-(4-(1-methyl-1H-pyrazol-4-yl)pyridin-2-yl)pyrrolidine-3-carboxamide] | 1000 to 10000 |
| CN(C)S(=O)(=O)N1CCc2nc(NC(=O)[C@H]3CCN(C#N)C3)sc2C1 [Example 212, (S)-1-cyano-N-(5-(N,N-dimethylsulfamoyl)-4,5,6,7-tetrahydrothiazolo[5,4-c]pyridin-2-yl)pyrrolidine-3-carboxamide] | < 1000 |
| N#CN1CC[C@H](C(=O)Nc2ncc(-c3ccnnc3)s2)C1 [Example 213, (S)-1-cyano-N-(5-(pyridazin-4-yl)thiazol-2-yl)pyrrolidine-3-carboxamide] | < 1000 |
| N#Cc1ccc(-c2cnc(NC(=O)[C@H]3CCN(C#N)C3)s2)cc1F [Example 214, (S)-1-cyano-N-(5-(4-cyano-3-fluorophenyl)thiazol-2-yl)pyrrolidine-3-carboxamide] | < 1000 |
| N#CN1CC[C@H](C(=O)Nc2ncc(-c3cccc4cn[nH]c34)s2)C1 [Example 215, (S)-N-(5-(1H-indazol-7-yl)thiazol-2-yl)-1-cyanopyrrolidine-3-carboxamide] | < 1000 |
| N#CN1CC[C@H](C(=O)Nc2ncc(-c3cccc(-n4ccnc4)c3)s2)C1 [Example 216, (S)-N-(5-(3-(1H-imidazol-1-yl)phenyl)thiazol-2-yl)-1-cyanopyrrolidine-3-carboxamide] | < 1000 |
| CS(=O)(=O)Nc1ccc(-c2cnc(NC(=O)[C@H]3CCN(C#N)C3)s2)cc1 [Example 217, (S)-1-cyano-N-(5-(4-(methylsulfonamido)phenyl)thiazol-2-yl)pyrro1idine-3-carboxamide] | < 1000 |
| N#CN1CC[C@H](C(=O)Nc2ncc(-c3cccc(-n4cccn4)c3)s2)C1 [Example 218, (S)-N-(5-(3-(1H-pyrazol-1-yl)phenyl)thiazol-2-yl)-1-cyanopyrrolidine-3-carboxamide] | < 1000 |
| N#Cc1ccc(-c2cnc(NC(=O)[C@H]3CCN(C#N)C3)s2)cc1OC(F)(F)F [Example 219, (S)-1-cyano-N-(5-(4-cyano-3-(trifluoromethoxy)phenyl)thiazol-2-yl)pyrrolidine-3-carboxamide] | < 1000 |

| Compound | IC50 [nM] |
| --- | --- |
| COc1cc(-c2cnc(NC(=O)[C@H]3CCN(C#N)C3)s2)ccc1C#N [Example 220, (S)-1-cyano-N-(5-(4-cyano-3-methoxyphenyl)thiazol-2-yl)pyrrolidine-3-carboxamide] | < 1000 |
| N#CN1CC[C@H](C(=O)Nc2ncc(-c3ccc(S(N)(=O)=O)cc3)s2)C1 [Example 221, (S)-1-cyano-N-(5-(4-sulfamoylphenyl)thiazol-2-yl)pyrrolidine-3-carboxamide] | < 1000 |
| N#CN1CC[C@H](C(=O)Nc2ncc(-c3ccc4cn[nH]c4c3)s2)C1 [Example 222, (S)-N-(5-(1H-indazol-6-yl)-2-yl)-1-cyanopyrrolidine-3-carboxamide] | < 1000 |
| N#CN1CC[C@H](C(=O)Nc2ncc(-c3ccc4[nH]ncc4c3)s2)C1 [Example 223, (S)-N-(5-(1H-indazol-5-yl)thiazol-2-yl)-1-cyanopyrrolidine-3-carboxamide] | < 1000 |
| CNC(=O)c1cccc(-c2cnc(NC(=O)[C@H]3CCN(C#N)C3)s2)n1 [Example 224, (S)-6-(2-(1-cyanopyrrolidine-3-carboxamido)thiazol-5-yl)-N-methylpicolinamide] | < 1000 |
| CCNC(=O)c1cccc(-c2cnc(NC(=O)[C@H]3CCN(C#N)C3)s2)n1 [Example 225, (S)-6-(2-(1-cyanopyrrolidine-3-carboxamido)thiazol-5-yl)-N-ethylpicolinamide] | < 1000 |
| Cn1ncc2cc(-c3cnc(NC(=O)[C@H]4CCN(C#N)C4)s3)ccc21 [Example 226, (S)-1-cyano-N-(5-(1-methyl-1H-indazol-5-yl)thiazol-2-yl)pyrrolidine-3-carboxamide] | < 1000 |
| COCCn1ncc2cc(-c3cnc(NC(=O)[C@H]4CCN(C#N)C4)s3)ccc21 [Example 227, (S)-1-cyano-N-(5-(1-(2-methoxyethyl)-1H-indazol-5-yl)thiazol-2-yl)pyrrolidine-3-carboxamide] | < 1000 |
| N#CN1CC[C@H](C(=O)Nc2ncc(-c3cccc4c3NC(=O)C4)s2)C1 [Example 228, (S)-1-cyano-N-(5-(2-oxoindolin-7-yl)thiazol-2-yl)pyrrolidine-3-carboxamide] | < 1000 |
| N#CN1CC[C@H](C(=O)Nc2ncc(-c3cccc4[nH]ncc34)s2)C1 [Example 230, (S)—N-(5-(1H-indazol-4-yl)thiazol-2-yl)-1-cyanopyrrolidine-3-carboxamide] | < 1000 |
| CNC(=O)c1cc(-c2cnc(NC(=O)[C@H]3CCN(C#N)C3)s2)ccc1F [Example 231, (S)-1-cyano-N-(5-(4-fluoro-3-(methylcarbamoyl)phenyl)thiazol-2-yl) pyrrolidine-3-carboxamide] | < 1000 |
| N#CN1CC[C@H](C(=O)Nc2ncc(-c3cccc(C(N)=O)c3)s2)C1 [Example 232, (S)-N-(5-(3-carbamoylphenyl)thiazol-2-yl)-1-cyanopyrrolidine-3-carboxamide] | < 1000 |
| CNC(=O)c1cccc(-c2cnc(NC(=O)[C@H]3CCN(C#N)C3)s2)c1 [Example 233, (S)-1-cyano-N-(5-(3-(methylcarbamoyl)phenyl)thiazol-2-yl)pyrrolidine-3-carboxamide] | < 1000 |
| CCNC(=O)c1cccc(-c2cnc(NC(=O)[C@H]3CCN(C#N)C3)s2)c1 [Example 234, (S)-1-cyano-N-(5-(3-(ethylcarbamoyl)phenyl)thiazol-2-yl)pyrrolidine-3-carboxamide] | < 1000 |
| CN(C)C(=O)c1cccc(-c2cnc(NC(=O)[C@H]3CCN(C#N)C3)s2)c1 [Example 235, (S)-1-cyano-N-(5-(3-(dimethylcarbamoyl)phenyl)thiazol-2-yl)pyrrolidine-3-carboxamide] | < 1000 |
| N#CN1CC[C@H](C(=O)Nc2ncc(-c3ccc(F)c(C(N)=O)c3)s2)C1 [Example 236, (S)-N-(5-(3-carbamoyl-4-fluorophenyl)thiazol-2-yl)-1-cyanopyrrolidine-3-carboxamide] | < 1000 |
| N#CN1CC[C@H](C(=O)Nc2ncc(-c3ccc(Cl)c(C(N)=O)c3)s2)C1 [Example 237, (S)-N-(5-(3-carbamoyl-4-chlorophenyl)thiazol-2-yl)-1-cyanopyrrolidine-3-carboxamide] | < 1000 |
| CNC(=O)c1cc(-c2cnc(NC(=O)[C@H]3CCN(C#N)C3)s2)ccc1Cl [Example 238, (S)-N-(5-(4-chloro-3-(methylcarbamoyl)phenyl)thiazol-2-yl)-1-cyanopyrrolidine-3-carboxamide] | < 1000 |
| C#CCNC(=O)c1cc(-c2cnc(NC(=O)[C@H]3CCN(C#N)C3)s2)ccc1Cl [Example 239, (S)-N-(5-(4-chloro-3-(prop-2-yn-1-ylcarbarmoyl)phenyl)thiazol-2-yl)-1-cyanopyrrolidine-3-carboxamide] | < 1000 |
